Measurements published in patent US8916599B2, “1H-benz imidazole-5-carboxamides as anti-inflammatory agents” (Orexo AB, priority 2008, dated 2014).

These molecules were tested against T1, recombinant human mPGES-1 (Homo sapiens, UniProt O14684) (assay: mPGES-1 inhibition test (microsomes, PGH2 substrate, HTRF detection of PGE2)). Settings: inhibition of mPGES-1 at 10 μM.
T1 construct: made in house; host or cells: Rosetta E. coli (microsomal/membrane fraction)
T1 sequence (O14684 1-152): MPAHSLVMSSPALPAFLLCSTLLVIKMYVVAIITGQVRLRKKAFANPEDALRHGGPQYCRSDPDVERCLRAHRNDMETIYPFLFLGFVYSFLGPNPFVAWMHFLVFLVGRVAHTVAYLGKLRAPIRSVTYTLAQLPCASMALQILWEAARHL
Type: biochemical
How it was run: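 PGE2 formed from PGH2 in one minute by E. coli-expressed microsomal enzyme (pH 7.4, 2.5 mM GSH) was measured by competitive HTRF against a synthetic PGE2 standard curve. Compounds were preincubated 25 min at room temperature.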

SMILES	inhibition at 10 µM [%]
O=C(Nc1ccc(Br)cc1)c1cc2nc(Nc3c(Cl)cc(F)cc3Cl)[nH]c2cc1OCC(F)(F)F [Example 582, 2-(2,6-Dichloro-4-fluoro-phenylamino)-N-(4-bromo-phenyl)-6-(2,2,2-trifluorethoxy)-1H-benzimidazole-5-carboxamide]	100
O=C(N[C@H]1CC[C@H](C(F)(F)F)CC1)c1cc2nc(Nc3c(Cl)cc(F)cc3Cl)[nH]c2cc1OCC(F)(F)F [Example 583, 2-(2,6-Dichloro-4-fluoro-phenylamino)-N-(trans-4-trifluoromethyl-cyclohex-1-yl)-6-(2,2,2-trifluoroethoxy)-1H-benzimidazole-5-carboxamide]	95
O=C(N[C@H]1CC[C@H](C(F)(F)F)CC1)c1cc2nc(Nc3c(Cl)cc(F)cc3Cl)[nH]c2cc1OCCF [Example 584, 2-(2,6-Dichloro-4-fluoro-phenylamino)-N-(trans-4-trifluoro-cyclohex-1-yl)-6-(2-fluoroethoxy)-1H-benzimidazole-5-carboxamide]	96
O=C(Nc1ccc(Br)cc1)c1cc2nc(Nc3c(Cl)cc(F)cc3Cl)[nH]c2cc1OCCF [Example 585, 2-(2,6-Dichloro-4-fluoro-phenylamino)-N-(4-bromo-phenyl)-6-(2-fluoroethoxy)-1H-benzimidazole-5-carboxamide]	100
O=C(Nc1ccc(Br)cc1)c1cc2nc(Nc3c(Cl)cc(F)cc3Cl)[nH]c2cc1OCC(F)F [Example 586, 2-(2,6-Dichloro-4-fluoro-phenylamino)-N-(4-bromo-phenyl)-6-(2,2-difluoroethoxy)-1H-benzimidazole-5-carboxamide]	100
O=C(N[C@H]1CC[C@H](C(F)(F)F)CC1)c1cc2nc(Nc3c(Cl)cc(F)cc3Cl)[nH]c2cc1OCC(F)F [Example 587, 2-(2,6-Dichloro-4-fluoro-phenylamino)-N-(trans-4-trifluoromethyl-cyclohex-1-yl)-6-(2,2-difluoroethoxy)-1H-benzimidazole-5-carboxamide]	97
O=C(Nc1ccc(Br)cc1)c1cc2nc(Nc3c(F)ccc(Cl)c3Cl)[nH]c2cc1OCC(F)(F)F [Example 588, N-(4-Bromo-phenyl)-2-(2,3-dichloro-6-fluoro-phenylamino)-6-(2,2,2-trifluoroethoxy)-1H-benzimidazole-5-carboxamide]	100
O=C(N[C@H]1CC[C@H](C(F)(F)F)CC1)c1cc2nc(Nc3c(Cl)cccc3Cl)[nH]c2cc1OCC(F)(F)F [Example 589, 2-(2,6-Dichloro-phenylamino)-6-(2,2,2-trifluoroethoxy)-N-(trans-4-trifluormethyl-cyclohex-1-yl)-1H-benzimidazole-5-carboxamide]	100
O=C(Nc1ccc(Br)cc1)c1cc2nc(Nc3c(Cl)cccc3Cl)[nH]c2cc1OCC(F)(F)F [Example 590, 2-(2,6-Dichloro-phenylamino)-N-(4-bromo-phenyl)-6-(2,2,2-trifluoroethoxy)-1H-benzimidazole-5-carboxamide]	96
O=C(NC1CCC(C(F)(F)F)CC1)c1cc2nc(Nc3c(F)ccc(Cl)c3Cl)[nH]c2cc1OCC(F)(F)F (stereo not drawn) [Example 591, 2-(2,3-Dichloro-6-fluoro-phenylamino)-6-(2,2,2-trifluoro-ethoxy)-N-(4-trans-trifluoromethyl-cyclohex-1-yl) 1H-benzimidazole-5-carboxamide]	99
O=C(N[C@H]1CC[C@H](C(F)(F)F)CC1)c1cc2nc(Nc3c(Cl)ccc(Cl)c3F)[nH]c2cc1OCC(F)(F)F [Example 592, 2-(3,6-Dichloro-2-fluoro-phenylamino)-N-(4-trans-trifluoromethyl-cyclohex-1-yl)-6-(2,2,2-trifluorethoxy)-1H-benzimidazole-5-carboxamide]	97
O=C(Nc1ccc(Br)cc1)c1cc2nc(Nc3c(Cl)ccc(Cl)c3F)[nH]c2cc1OCC(F)(F)F [Example 593, 2-(3,6-Dichloro-2-fluoro-phenylamino)-N-(4-bromophenyl)-6-(2,2,2-trifluorethoxy)-1H-benzimidazole-5-carboxamide]	97
O=C(N[C@H]1CC[C@H](C(F)(F)F)CC1)c1cc2nc(Nc3c(F)ccc(F)c3Cl)[nH]c2cc1OCC(F)(F)F [Example 594, 2-(2-Chloro-3,6-difluoro-phenylamino)-N-(4-trans-trifluoromethyl-cyclohex-1-yl)-6-(2,2,2-trifluorethoxy)-1H-benzimidazole-5-carboxamide]	94
O=C(Nc1ccc(Br)cc1)c1cc2nc(Nc3c(F)ccc(F)c3Cl)[nH]c2cc1OCC(F)(F)F [Example 595, 2-(2-Chloro-3,6-difluoro-phenylamino)-N-(4-bromophenyl)-6-(2,2,2-trifluorethoxy)-1H-benzimidazole-5-carboxamide]	100
CC1(C)CCC(NC(=O)c2cc3nc(Nc4c(Cl)ccc(Cl)c4F)[nH]c3cc2F)CC1 [Example 596, 2-(3,6-Dichloro-2-fluoro-phenylamino)-N-(4,4-dimethyl-cyclohex-1-yl)-6-fluoro-1H-benzimidazole-5-carboxamide]	95
O=C(N[C@H]1CC[C@H](C(F)(F)F)CC1)c1cc2nc(Nc3c(Cl)ccc(Cl)c3F)[nH]c2cc1F [Example 597, 2-(3,6-Dichloro-2-fluoro-phenylamino)-N-(trans-4-trifluoromethyl-cyclohex-1-yl)-6-fluoro-1H-benzimidazole-5-carboxamide]	100

The remaining lines, values ahead:

inhibition at 10 µM [%]	SMILES
100	O=C(Nc1cccc(Cl)c1)c1cc2nc(Nc3c(Cl)ccc(Cl)c3F)[nH]c2cc1F [Example 598, 2-(3,6-Dichloro-2-fluoro-phenylamino)-N-(3-chlorphenyl)-6-fluoro-1H-benzimidazole-5-carboxamide]
92	CCOc1cc2[nH]c(Nc3c(Cl)ccc(Cl)c3F)nc2cc1C(=O)N[C@H]1CC[C@H](C(F)(F)F)CC1 [Example 599, 2-(3,6-Dichloro-2-fluoro-phenylamino)-6-ethoxy-N-(trans-4-trifluoromethyl-cyclohex-1-yl)-1H-benzimidazole-5-carboxamide]
94	CCOc1cc2[nH]c(Nc3c(Cl)ccc(Cl)c3F)nc2cc1C(=O)NC1CCC(C)(C)CC1 [Example 600, 2-(3,6-Dichloro-2-fluoro-phenylamino)-N-(4,4-dimethyl-cyclohexyl)-6-ethoxy-1H-benzimidazole-5-carboxamide]
92	Cn1c(Nc2c(Cl)ccc(Cl)c2F)nc2cc(C(=O)N[C@H]3CC[C@H](C(F)(F)F)CC3)c(F)cc21 [Example 601, 2-(3,6-Dichloro-2-fluoro-phenylamino)-6-fluoro-N-(trans-4-trifluoromethyl-cyclohex-1-yl)-1-methyl-1H-benzimidazole-5-carboxamide]
100	COc1cc2[nH]c(Nc3c(Cl)ccc(Cl)c3F)nc2cc1C(=O)Nc1ccc(Br)cc1 [Example 602, 2-(3,6-Dichloro-2-fluoro-phenylamino)-6-methoxy-N-(4-bromophenyl)-1H-benzimidazole-5-carboxamide]
90	CCOc1cc2[nH]c(Nc3c(Cl)ccc(Cl)c3F)nc2cc1C(=O)Nc1cccc(Cl)c1 [Example 603, 2-(3,6-Dichloro-2-fluoro-phenylamino)-N-(3-chloro-phenyl)-6-ethoxy-1H-benzimidazole-5-carboxamide]
100	CCOc1cc2[nH]c(Nc3c(Cl)ccc(Cl)c3F)nc2cc1C(=O)Nc1ccc(Br)cc1 [Example 604, 2-(3,6-Dichloro-2-fluoro-phenylamino)-N-(4-bromo-phenyl)-6-ethoxy-1H-benzimidazole-5-carboxamide]
93	CCOc1cc2c(cc1C(=O)NC1CCC(C(F)(F)F)CC1)nc(Nc1c(Cl)ccc(Cl)c1F)n2C (stereo not drawn) [Example 605, 2-(3,6-Dichloro-2-fluoro-phenylamino)-6-ethoxy-N-(4-trans-trifluoromethyl-cyclohex-1-yl)-1-methyl-1H-benzimidazole-5-carboxamide]
94	Cn1c(Nc2c(Cl)ccc(Cl)c2F)nc2cc(C(=O)NC3CCC4(CC3)CC4)c(F)cc21 [Example 606, 2-(3,6-Dichloro-2-fluoro-phenylamino)-6-fluoro-N-(spiro[2.5]oct-6-yl)-1-methyl-1H-benzimidazole-5-carboxamide]
97	CCOc1cc2c(cc1C(=O)NC1CCC(C)(C)CC1)nc(Nc1c(Cl)ccc(Cl)c1F)n2C [Example 607, 2-(3,6-Dichloro-2-fluoro-phenylamino)-6-ethoxy-N-(4,4-dimethyl-cyclohex-1-yl)-1-methyl-1H-benzimidazole-5-carboxamide]
92	O=C(NC1CCC2(CC1)CC2)c1cc2nc(Nc3c(Cl)ccc(Cl)c3F)[nH]c2cc1F [Example 608, 2-(3,6-Dichloro-2-fluoro-phenylamino)-N-(spiro[2.5]oct-6-yl)-6-fluoro-1H-benzimidazole-5-carboxamide]
99	CCOc1cc2c(cc1C(=O)NC1CCC3(CC1)CC3)nc(Nc1c(Cl)ccc(Cl)c1F)n2C [Example 609, 2-(3,6-Dichloro-2-fluoro-phenylamino)-6-ethoxy-N-(spiro[2.5]oct-6-yl)-1-methyl-1H-benzimidazole-5-carboxamide]
87	CC(C)Oc1cc2[nH]c(Nc3c(Cl)ccc(Cl)c3F)nc2cc1C(=O)Nc1ccc(Br)cc1 [Example 610, 2-(3,6-Dichloro-2-fluoro-phenylamino)-N-(4-bromo-phenyl)-6-isopropoxy-1H-benzimidazole-5-carboxamide]
90	CC(C)Oc1cc2[nH]c(Nc3c(Cl)ccc(Cl)c3F)nc2cc1C(=O)NC1CCCCC1 [Example 611, 2-(3,6-Dichloro-2-fluoro-phenylamino)-6-isopropoxy-N-cyclohexyl-1H-benzimidazole-5-carboxamide]
